This data set in a line: gradient 5% acetonitrile 3 min, to 50% in 2 min, to 85% in 15 min, held 3 min, 100 µL/min. To be noted: column: Zorbax Extend-C18 2.1 x 50 mm; eluents: water / acetonitrile, 0.1% formic acid. Put shortly:
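Over 3 months, pure standards in mixtures of ~100 molecules were run by HPLC coupled to a quadrupole time-of-flight mass spectrometer in positive and negative ionization mode. The column was a Zorbax Extend-C18 (2.1 × 50 mm, 1.8 μm) at 100 μL/min, eluted with water and acetonitrile each holding 0.1% formic acid, with 40 μL dead and 900 μL dwell volumes. Retention time was determined from adduct peaks chosen by software and checked manually.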
`Cc1cc(N2CCN(C)CC2)nc2ccc(NC(=S)NCc3ccc4c(c3)OCO4)cc12` yielded an RP-LC retention time of 586 s.

Molecule `COc1cc(OC)cc(-c2noc(CCn3nc(-c4ccccc4)ccc3=O)n2)c1` returned an RP-LC retention time of 951 s.

`Cc1noc(-c2nc(Cc3cccc(F)c3)no2)n1` showed an RP-LC retention time of 940 s.

With `COc1ccc(NC(=O)N2CCCN(C3CCN(Cc4ccc(F)cc4)C3=O)CC2)cc1` (stereo not given), the RP-LC retention time turned out to be 570 s.

Molecule `CC(C)(C)c1nnc2n(c1=O)N=C(c1ccc(F)cc1)CS2` gave an RP-LC retention time of 857 s.

Molecule `O=c1c2scc(-c3ccc(F)cc3)c2ncn1Cc1ccc(Br)cc1` returned an RP-LC retention time of 1180 s.

The molecule `CCCN1C(=O)COc2ccc(-c3noc(-c4cccc(C)c4)n3)cc21` came in with an RP-LC retention time of 1320 s.

In the case of `CCn1cc(C(=O)Nc2ccc(C)cc2)c2cccnc21`, the RP-LC retention time came to 859 s.

The molecule `O=C(Cn1cnc2nc(N3CCC(C(=O)NC4CC4)CC3)sc2c1=O)Nc1ccc2c(c1)CCC2` returned an RP-LC retention time of 670 s.

As for `CCN(CC)CCCNc1ccc(-c2nc(-c3ccc(OC)cc3)no2)cn1`, the RP-LC retention time came to 681 s.

As to `CCS(=O)(=O)N1CCc2ccc(NC(=O)c3ccco3)cc2C1`, the RP-LC retention time came to 682 s.

Molecule `Cc1cc(C)cc(OCC(=O)N2CCCCC2CCN2CCOCC2)c1` (stereo not given) registered an RP-LC retention time of 668 s.

On to `O=C([C@@H]1C[C@H](F)CN1C(=O)Nc1cccc(C(F)(F)F)c1)N1CCCCC1`, for which the RP-LC retention time is 804 s.

On to `Cc1nnc(-c2cc(C)n(CC(=O)Nc3ccc(C)c(Cl)c3)c2C)o1`, for which the RP-LC retention time came out at 852 s.

Consider `COc1cc(OC)cc(C(=O)N2CCN=C2N2CCCCC2)c1`, for which the RP-LC retention time stood at 646 s.

The molecule `CCn1cc(C(=O)Nc2cccc(F)c2)c(S(=O)(=O)N2CCSCC2)n1` came in with an RP-LC retention time of 845 s.

As for `Cc1cc(S(=O)(=O)N2CCC3(CC2)NCCCN=C3NC2CCCC2)ccc1F`, the RP-LC retention time came out at 768 s.

For the molecule `O=C(c1ccc(OCC2CCCN(C(=O)C3CCCC3)C2)cc1)N1CCCC1` (stereo not given), the RP-LC retention time turned out to be 846 s.

Regarding `CCn1cc(-c2ccc(Cl)cc2)cc1C(=O)N1CCC(N2CCCCC2)CC1`, the RP-LC retention time is 713 s.

The molecule `COc1ccc(-c2noc(-c3nn(-c4ccc(OC)cc4)ccc3=O)n2)cc1` showed an RP-LC retention time of 827 s.

`CSc1ccc(CNC(=O)c2ccc3c(c2)NC(=O)C2CCCCN32)cc1` (stereo not given) displayed an RP-LC retention time of 850 s.

The molecule `CCOC(=O)c1cnc(N2CCN(c3cccc(Cl)c3)CC2)c2ccccc12` came in with an RP-LC retention time of 652 s.

Turning to `CC1CCN(C(=O)c2cc3c(s2)CCN(C(=O)c2ccc(Cl)cc2)C3)CC1`, the RP-LC retention time came out at 987 s.

In the case of `CCN1C(=O)CCc2cc(NC(=O)COc3ccc(F)cc3)ccc21`, the RP-LC retention time turned out to be 801 s.

`CN1CCN(C(=O)C2CCCN(c3ncccc3-c3noc(C4CCC4)n3)C2)CC1` (stereo not given) gave an RP-LC retention time of 623 s.

In turn, `Cc1ccc(-n2c(=O)c3c(cc(C)n3C)n(CC(=O)Nc3ccc(C)c(C)c3)c2=O)cc1` showed an RP-LC retention time of 906 s.

In the case of `CNS(=O)(=O)c1cc(C(=O)Nc2cc(C)on2)oc1C`, the RP-LC retention time was found to be 643 s.

Molecule `CCc1ccc2c(c1)cc(S(=O)(=O)c1ccccc1)c(=O)n2CC(=O)NC(C)CC` (stereo not given) returned an RP-LC retention time of 945 s.

Turning to `COCCn1nc2n(c1=O)CCN(C(=O)c1cc(C3CC3)[nH]n1)CC2`, the RP-LC retention time stood at 596 s.

`COc1ccc(CCNC(=O)C2CCN(c3ncnc4c3oc3ccccc34)CC2)cc1OC`: the RP-LC retention time turned out to be 683 s.

Regarding `C=CCNC(=O)N1CCCN(C2=NS(=O)(=O)C(c3ccc(F)cc3)=C2C)CC1`, the RP-LC retention time was 736 s.

Regarding `CCc1cc(C(=O)NCc2ccc(C)cc2)nc2ccnn12`, the RP-LC retention time is 985 s.

As to `O=C(Cc1ccc(F)cc1)NCCOc1cccc(C(F)(F)F)c1`, the RP-LC retention time turned out to be 880 s.

On to `COc1cccc(N2CCN(Cc3nc(-c4ccc(N5CCC(C)CC5)nc4)no3)CC2)c1`, for which the RP-LC retention time was found to be 1020 s.

`O=C(CCC(=O)N1CCOc2ccc(Cl)cc21)N1CCN(c2ccccn2)CC1` returned an RP-LC retention time of 656 s.

Regarding `O=C(CSc1nc2ccsc2c(=O)n1-c1ccc(F)cc1)Nc1ncn[nH]1`, the RP-LC retention time came to 667 s.

The molecule `CCc1cccc(C)c1NC(=O)C1CCN(S(C)(=O)=O)c2cc(C)ccc2O1` (stereo not given) showed an RP-LC retention time of 671 s.

In turn, `COc1ccc(C(CNC(=O)c2cc(=O)c3ccccc3o2)N(C)C)cc1` (stereo not given) showed an RP-LC retention time of 607 s.

The molecule `COC(=O)c1ccc(CN2CCN(c3cnn4cnnc4c3)CC2)cc1` showed an RP-LC retention time of 548 s.

Molecule `Cn1c(CCNC(=O)c2ccc(C(F)(F)F)cc2)nc2cccnc21` came in with an RP-LC retention time of 686 s.

Consider `C=CCNC(=O)Cn1c2c(c(=O)n3nc(-c4ccc(C)cc4)nc13)CCC2`, for which the RP-LC retention time is 720 s.

`O=C(NCc1ccccn1)C1CCN(C(=O)c2ncn3c2COC(c2ccc(Cl)cc2)C3)CC1` (stereo not given): the RP-LC retention time amounted to 644 s.

The molecule `O=C(Nc1ccccc1)c1ccc(N2CCC(NCc3ccc(F)c(F)c3)C2)nc1` (stereo not given) showed an RP-LC retention time of 568 s.

`NC(=O)C1CCN(C(=O)CN2CCN(c3ccccc3)CC2)CC1` gave an RP-LC retention time of 582 s.

As to `CC(C)c1nc2cccnc2n1CCN1CCN(C(=O)Nc2ccccc2Br)CC1`, the RP-LC retention time is 603 s.

In turn, `O=C(CCc1ccccc1)NC1CCN(c2cc(-c3ccccc3)[nH]n2)C1` (stereo not given) gave an RP-LC retention time of 643 s.

As for `O=C1NCCCn2cc(S(=O)(=O)Nc3ccc(F)cc3)cc21`, the RP-LC retention time was 639 s.

In the case of `CC(=O)c1cccc(NC(=O)c2csc3c2CCCC3)c1`, the RP-LC retention time stood at 996 s.

On to `CS(=O)(=O)N1CCCc2cc(C(=O)N3CCOCC3)ccc21`, for which the RP-LC retention time came to 654 s.

Regarding `O=C(COc1ccccc1)N1CCN(Cc2noc3ccccc23)CC1`, the RP-LC retention time was 708 s.

Molecule `COc1ccc(-c2nnc(-c3ccccc3)o2)cc1S(=O)(=O)N1CCC(C(=O)O)CC1` returned an RP-LC retention time of 774 s.

Consider `O=C(NCc1ccccc1C(F)(F)F)c1cn2ccccc2n1`, for which the RP-LC retention time was found to be 757 s.

Molecule `CCN(CCCNC(=O)CCc1nnc2ccc(-c3ccccc3)nn12)c1ccccc1` registered an RP-LC retention time of 654 s.

`Cc1cc2nn(CC(=O)Nc3ccc(F)cc3F)c(=O)n2c(Nc2ccc(F)c(C)c2)n1` had an RP-LC retention time of 1060 s.

For `CCCN1CCN(C(=O)c2cn3ccnc(-c4ccccc4)c3n2)CC1`, the RP-LC retention time worked out at 706 s.

`O=C(c1c(F)cccc1F)N1CCc2nc(-c3ccccc3)ncc2C1` returned an RP-LC retention time of 909 s.

Molecule `Cn1cc(CN2CCCC(COc3ccccc3C(=O)N3CCCC3)C2)c2ccccc21` (stereo not given) displayed an RP-LC retention time of 695 s.

`COc1ccccc1C(=O)Nc1c(-c2ccccc2)nc2ccccn12` gave an RP-LC retention time of 597 s.

In turn, `CC(=O)Nc1ccc(N2CCN(C3CCCCC3)CC2)cc1C(=O)O` displayed an RP-LC retention time of 588 s.

The molecule `CN(C)S(=O)(=O)c1ccc(-c2nnc(C(=O)N3CCCC3)o2)cc1` returned an RP-LC retention time of 727 s.

The molecule `COc1ccccc1Nc1nc(-c2ccc(Br)cc2)cs1` registered an RP-LC retention time of 1340 s.

Consider `O=C(Cc1cccs1)N1CCc2c([nH]c3ccccc23)C1c1ccc(Cl)cc1` (stereo not given), for which the RP-LC retention time is 1220 s.

For the molecule `Cc1cc(OCC(=O)NCc2ccco2)nc(N2CCC(C)CC2)n1`, the RP-LC retention time amounted to 650 s.

Regarding `COc1ccc(OCC(=O)N2CCc3c(c(-c4nnc(-c5ccccc5Cl)o4)nn3C)C2)cc1`, the RP-LC retention time came to 1010 s.

For `CCOc1cccc(CNC(=O)C2CCc3nc(N4CCOCC4)ncc3C2)c1` (stereo not given), the RP-LC retention time was determined as 743 s.

`Cc1cc(N2CCN(C(=O)c3ccc4c(c3)OCO4)CC2)nc(N2CCCCC2)n1` had an RP-LC retention time of 666 s.

`COCc1nc2cccnc2n1C1CCN(C(=O)Nc2ccc(Br)cc2)CC1`: the RP-LC retention time came to 747 s.

`CCOC(=O)c1c(C)[nH]c(C(=O)N2CCC(C(C)C(=O)NCc3ccc(F)cc3Cl)CC2)c1C` (stereo not given) displayed an RP-LC retention time of 863 s.

Take `COc1ccc(CNC(=O)C2CCN(S(C)(=O)=O)c3cc(Cl)ccc3O2)cc1` (stereo not given): the RP-LC retention time came to 877 s.

`COc1cccc(CN2CCn3c(nnc3[C@@H]3C[C@@H](O)CN3Cc3ccccc3)C2)c1` showed an RP-LC retention time of 622 s.

With `CC1CN(Cc2ccccc2)c2nc3c(c(=O)n(CCN4CCOCC4)c(=O)n3C)n2C1` (stereo not given), the RP-LC retention time amounted to 666 s.

`Cc1ccc(NC(=O)C2(C)Oc3cccnc3NC2=O)cc1F` (stereo not given): the RP-LC retention time is 755 s.

Molecule `CN1C(=O)CCc2cc(NS(=O)(=O)c3cccc(Cl)c3)ccc21` gave an RP-LC retention time of 783 s.

On to `O=C(Cc1cccs1)N1CCN(S(=O)(=O)c2cc(-c3noc(C4CCC4)n3)cs2)CC1`, for which the RP-LC retention time turned out to be 1010 s.

In the case of `CCOC(=O)C(C)Sc1ccc(NC(=O)c2ccco2)nn1` (stereo not given), the RP-LC retention time stood at 759 s.

As for `Cc1nc(-c2csc(S(=O)(=O)N3CCCC(C(=O)Nc4ccc(Cl)cc4)C3)c2)no1` (stereo not given), the RP-LC retention time stood at 1040 s.

`Cn1cc(-c2cnn3c(N)c(Br)c(C4CCCNC4)nc23)cn1` (stereo not given) gave an RP-LC retention time of 613 s.

The molecule `COC[C@@H]1CN(S(=O)(=O)Cc2ccccc2)C[C@H]1c1ccncc1` registered an RP-LC retention time of 637 s.

In turn, `CCOc1ccc(N2CC(c3nc(-c4ccccc4C)no3)CC2=O)cc1` (stereo not given) came in with an RP-LC retention time of 931 s.

As for `O=C(NCC1CCOCC1)c1ccc2[nH]ccc2c1`, the RP-LC retention time was 742 s.

Source of the values: the METLIN SMRT retention time set (Domingo-Almenara et al. 2019).
